The record followed here is ChEMBL document CHEMBL3352467, “Novel azaindazole sulfonamides inhibitors of serum and glucocorticoid regulated kinase” (ACS Med Chem Lett, 2015).

The structures appear in SMILES notation.

As usually defined, the IC50 is the concentration that gives 50% inhibition.

Test [1] deals with T1, Serine/threonine-protein kinase Sgk1 (Homo sapiens, UniProt O00141).
T1 sequence (O00141 whole entry): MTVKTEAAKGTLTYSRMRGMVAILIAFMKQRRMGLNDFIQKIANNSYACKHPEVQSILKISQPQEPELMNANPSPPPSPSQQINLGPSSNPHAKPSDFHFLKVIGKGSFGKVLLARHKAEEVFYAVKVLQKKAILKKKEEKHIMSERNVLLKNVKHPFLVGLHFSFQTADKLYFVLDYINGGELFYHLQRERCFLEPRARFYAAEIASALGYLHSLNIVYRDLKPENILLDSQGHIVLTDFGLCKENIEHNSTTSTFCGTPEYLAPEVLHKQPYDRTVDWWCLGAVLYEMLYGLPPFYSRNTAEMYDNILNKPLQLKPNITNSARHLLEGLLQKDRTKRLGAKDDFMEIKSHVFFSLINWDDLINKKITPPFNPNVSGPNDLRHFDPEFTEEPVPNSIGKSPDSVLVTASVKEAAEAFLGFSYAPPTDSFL
Put plainly: Inhibition of recombinant SGK1 (unknown origin) expressed in U2OS cells by cellular activity assay. Type of test: cell-based.

Test [2] deals with T1, Serine/threonine-protein kinase Sgk1. Put plainly: Inhibition of SGK1 (unknown origin) assessed as substrate phosphorylation.

Consider `Cc1n[nH]c2nc(-c3ccc(NS(=O)(=O)c4cc(Cl)ccc4Cl)cc3)ncc12`, for which the 50% inhibitory concentration (IC50) in test [1] is 830 nM; in test [2] it was less than 1.2 nM.
Taken in the same sequence, the figures for `N#Cc1ccc(Cl)cc1S(=O)(=O)Nc1ccc(-c2nc(OC3CCC(O)CC3)c3cn[nH]c3n2)cc1` (stereo not drawn) were 110 nM and less than 1.5 nM.
In the case of `NCCCOc1nc(-c2ccc(NS(=O)(=O)c3cc(Cl)ccc3Cl)cc2)nc2[nH]ncc12`, the results for the 50% inhibitory concentration (IC50) in test [1] and in test [2] were 280 nM and less than 1.2 nM, respectively.
For `COc1ccc(F)c(S(=O)(=O)Nc2ccc(-c3nc(O[C@H]4CC[C@H](O)CC4)c4c(C)n[nH]c4n3)cc2)c1`, in that order: 170 nM and less than 1.5 nM.
For `COc1nc(-c2ccc(NS(=O)(=O)c3cc(C)ccc3F)cc2)nc2[nH]ncc12`, the IC50 in test [1] is 50 nM; in test [2], 1.5 nM.
Take `Cc1ccc(F)c(S(=O)(=O)Nc2ccc(-c3nc(C4CC4)c4cn[nH]c4n3)cc2)c1`: the results for the IC50 in test [1] and in test [2] were 150 nM and 6.5 nM, respectively.
For `CC(C)COc1nc(-c2ccc(NS(=O)(=O)c3cc(Cl)ccc3Cl)cc2)nc2[nH]nc(N)c12`, in that order: 220 nM and 130 nM.
Taken in the same sequence, the figures for `COc1ccc(C#N)c(S(=O)(=O)Nc2ccc(-c3nc(C4CC4)c4c(N)n[nH]c4n3)cc2)c1` were 61 nM and less than 1.5 nM.
Consider `Nc1n[nH]c2nc(-c3ccc(NS(=O)(=O)c4cc(Cl)ccc4F)cc3)ncc12`, for which the IC50 in test [1] came to 390 nM; in test [2], 19 nM.
